Values of other authors as cited in patent US5604233A, “Lactone stable formulation of 7-ethyl camptothecin and methods for uses thereof” (priority 1994, dated 1997).

Columns and labels:
[1] = system: Topoisomerase I purified from human colon carcinoma cells or calf thymus; conditions: cited from earlier work
[2] = Phase I, early 1970's; cited from earlier work
[3] = system: L1210 cells; conditions: cited from earlier work
[4] = pH levels below 7.0; cited from earlier work
[5] = cited from earlier work
[6] = system: topoisomerase II; conditions: cited from earlier work
[7] = system: topoisomerase I; conditions: cited from earlier work
[8] = system: L1210 leukemia; conditions: 10-100 mg/kg intraperitoneally; cited from earlier work

CC[C@@]1(O)C(=O)OCc2c1cc1n(c2=O)Cc2cc3ccccc3nc2-1 [camptothecin]
inhibition of purified topoisomerase I [1]: inhibited | antitumor activity in Phase I trials [2]: antitumor activity | toxicity in Phase I trials [2]: unpredictable myelosuppression and hemorrhagic cystitis | protein-free breaks [3]: increase in unexplained protein-free breaks | form predominating [4]: closed form | solubility in water [5]: poorly soluble in water | effect on topoisomerase II [6]: no effect | reversibility of cleavable complex stabilization [7]: readily reversible | T/C (treated/control) ratios relative to ECPT and HECPT [8]: superior | results relative to CPT-11 under the same conditions [8]: inferior
